Values of other authors as cited in US20130292614A1, “F[…] AS […]” (3M INNOVATIVE PROPERTIES COMPANY, priority 2011, published 2013).

Conditions: inhalation; 2.5 to 3 hour; cited from earlier work

FC(F)(F)C1(F)OC1(F)F (stereo not shown) [C3 perfluorooxirane]
acute lethal concentration (ALC): 200 ppm
